BigSolDB 2.1

COC(=O)/C=C/C(=O)OC
Settings	solubility (mole fraction)
in ethanol, 289.95 K	0.00328
in ethanol, 294.45 K	0.00465
in ethanol, 297.55 K	0.00607
in ethanol, 303.15 K	0.00908
in ethanol, 307.3 K	0.0122
in ethanol, 311.1 K	0.0157
in ethanol, 314.75 K	0.0199
in ethanol, 318.65 K	0.0253
in ethanol, 322.55 K	0.0326
in ethanol, 327.35 K	0.0431
in ethanol, 331.85 K	0.058
in ethanol, 336.05 K	0.0751
in isopropanol, 295.8 K	0.00533
in isopropanol, 300.95 K	0.00748
in isopropanol, 304.35 K	0.0097
in isopropanol, 306.7 K	0.0117
in isopropanol, 309.85 K	0.0148
in isopropanol, 312.55 K	0.0183
in isopropanol, 316.85 K	0.025
in isopropanol, 320 K	0.0318
in isopropanol, 322.8 K	0.0396
in isopropanol, 326.25 K	0.0486
in isopropanol, 329.75 K	0.0629
in isopropanol, 332.85 K	0.0785
in isopropanol, 335.8 K	0.0997
in methanol, 297.45 K	0.00749
in methanol, 301 K	0.00948
in methanol, 305.55 K	0.0122
in methanol, 309.17 K	0.0152
in methanol, 312.85 K	0.0189
in methanol, 316.45 K	0.0231
in methanol, 319.37 K	0.0279
in methanol, 322.28 K	0.0335
in methanol, 325.93 K	0.04
in methanol, 329.15 K	0.0491
in methanol, 332.3 K	0.06
in methanol, 337.65 K	0.081
in n-propanol, 295.2 K	0.00504
in n-propanol, 299.95 K	0.00668
in n-propanol, 304.35 K	0.00906
in n-propanol, 307.85 K	0.0114
in n-propanol, 310.7 K	0.0138
in n-propanol, 313.2 K	0.0174
in n-propanol, 318.7 K	0.0253
in n-propanol, 323.65 K	0.0369
in n-propanol, 328.95 K	0.0535
in n-propanol, 332.5 K	0.0686
in n-propanol, 335.65 K	0.087
in n-propanol, 338.15 K	0.106
in n-propanol, 341.3 K	0.136
in propylene glycol, 302.75 K	0.000378
in propylene glycol, 307.05 K	0.000797
in propylene glycol, 310.55 K	0.00143
in propylene glycol, 314.25 K	0.00255
in propylene glycol, 316.75 K	0.00366
in propylene glycol, 320.05 K	0.00586
in propylene glycol, 323.25 K	0.00886
in propylene glycol, 327.95 K	0.0149
in propylene glycol, 332.15 K	0.023
in propylene glycol, 337.25 K	0.0349
in propylene glycol, 342.35 K	0.051
in propylene glycol, 347.15 K	0.073
in water, 300.55 K	9.27e-05
in water, 302.6 K	0.000116
in water, 309.85 K	0.000236
in water, 315.45 K	0.000365
in water, 322.4 K	0.000575
in water, 328.05 K	0.000781
in water, 333.25 K	0.000989
in water, 337.05 K	0.00113
in water, 340.65 K	0.00132
in water, 344.45 K	0.00148
